Measurements reported in publication PMC6089848 (Acta Pharmaceutica Sinica. B, 2018).
Structures can show the parent of a compound that is named as a salt.

Key:
[1] = tested on: pseudotyped EBOV virus (pHIV-EBOVGP-Fluc); assay type: cell-based, Ebola virus (EBOV); conditions: for IC50: read-out: Anti-EBOV IC50
[2] = tested on: human embryonic kidney (HEK) 293 T cells
[3] = tested on: pseudotyped Vesicular Stomatitis Virus (pHIV-VSVGP-Fluc); assay type: cell-based, Vesicular Stomatitis Virus (VSV); conditions: read-out: Anti-VSV IC50
in vitro = conditions: human
pHIV-MARVGP-Fluc virus = tested on: pHIV-MARVGP-Fluc virus; design: species or system BALB/c mice; conditions: mouse, ip

SMILES | SI [1] | IC50 [1] | CC50 [2] | IC50 [3] | CC50 (in vitro) | reduction (bioluminescence), in vivo anti-MARV (pHIV-MARVGP-Fluc virus)
COC(=O)CC1C2CCCN3CCCC(CN1S(=O)(=O)c1ccc(Cl)cc1)C23.Cl (stereo not drawn) [10c, Methyl 12N-p-chlorobenzesulfonyl matrinic acetate hydrochloride] | >7.46 | 26.8 µM | > 200 µM | > 200 µM | – | –
O=C(O)CC1C2CCCN3CCCC(CN1C(=O)c1ccc(Cl)cc1)C23 (stereo not drawn) [11b, 12N-p-Chlorobenzoyl matrinic acetic acid] | – | > 200 µM | > 200 µM | > 200 µM | – | –
O=C(O)CC1C2CCCN3CCCC(CN1CCCc1cc(Cl)cc(Cl)c1)C23 (stereo not drawn) [15f, 12N-3′,5′-Dichlorohydrocinnamyl matrinic acetic acid] | – | – | 83.3 µM | – | – | –
CN[C@H]1CC[C@@H](c2ccc(Cl)c(Cl)c2)c2ccccc21 [Sertraline, sertraline] | – | – | – | – | 29.2 µM | no activity at all
COC(=O)CCC[C@@H]1[C@H]2CCCN3CCC[C@H](CN1C(=O)c1ccc(Cl)cc1)[C@@H]23 [4b, Methyl 12N-p-chlorobenzoyl sophoridinate] | 5.12 | 39.1 µM | 200 µM | > 200 µM | – | –
COC(=O)CCCC1C2CCCN3CCCC(CN1Cc1ccc(Cl)c(Cl)c1)C23.Cl.Cl (stereo not drawn) [4a, methyl 12N-3′,4′-dichlorobenzyl sophoridinate dihydrochloride] | 8.28 | 2.68 µM | 22.2 µM | 7.52 µM | – | –
O=C(O)CC1C2CCCN3CCCC(CN1Cc1ccc(Cl)cc1)C23 (stereo not drawn) [11a, 12N-p-Chlorobenzyl matrinic acetic acid] | – | > 200 µM | > 200 µM | > 200 µM | – | –
O=C(O)CCC[C@@H]1[C@H]2CCCN3CCC[C@@H](CN1Cc1ccc(Cl)cc1)[C@@H]23 [8a, 12N-p-Chlorobenzyl matrinic acid dihydrochloride] | – | > 200 µM | 200 µM | > 200 µM | – | –
COC(=O)CCCC1C2CCCN3CCCC(CN1Cc1ccc(Cl)cc1)C23.Cl.Cl (stereo not drawn) [7a, Methyl 12N-p-chlorobenzyl matrinate dihydrochloride] | 7.87 | 25.4 µM | 200 µM | 188 µM | – | –
O=C(O)CCCC1C2CCCN3CCCC(CN1C(=O)c1ccc(Cl)cc1)C23 (stereo not drawn) [5b, 12N-p-Chlorobenzoyl sophoridinic acid] | – | > 200 µM | > 200 µM | > 200 µM | – | –
COC(=O)CCCC1C2CCCN3CCCC(CN1S(=O)(=O)c1ccc(Cl)cc1)C23 (stereo not drawn) [4c, Methyl 12N-p-chlorobenzenesulfonyl sophoridinate] | >7.59 | 2.9 µM | > 22 µM | > 22 µM | – | –
COC(=O)CC1C2CCCN3CCCC(CN1Cc1ccc(Cl)c(Cl)c1)C23.Cl.Cl (stereo not drawn) [10d, Methyl 12N-3′,4′-dichlorobenzyl matrinic acetate dihydrochloride] | 15.3 | 10 µM | 153 µM | 123 µM | – | –
O=C(O)CCCC1C2CCCN3CCCC(CN1S(=O)(=O)c1ccc(Cl)cc1)C23 (stereo not drawn) [5c, 12N-p-Chlorobenzenesulfonyl sophoridinic acid] | 17.5 | 11.4 µM | – | > 200 µM | – | –
